In general, Kd refers to the equilibrium constant for the complex coming apart. By IC50 is commonly meant the midpoint of a concentration-inhibition curve. Usually inhibition stands for the drop in the measured response relative to a control, in per cent.

The text below walks through data of paper PMC7309560, “Discovery of Small Molecule Inhibitors Targeting the Sonic Hedgehog” (Frontiers in Chemistry, 2020).

Assay [1] addresses T1, ShhN-EGFP (Homo sapiens, UniProt Q15465).
T1 construct: PET-28(a)-human ShhN (Shh 24-197) plasmid; His (N); made in house; host or cells: Escherichia coli Rosetta (DE3)
The assay can be described thus: Microscale thermophoresis (MST) binding. The method, then: Chuanmao Zhang. EGFP gene was subcloned into pET-28(a)-human ShhN vector to build ShhN-EGFP plasmids. All mutations were introduced by PCR and confirmed by sequencing with GENEWIZ (China).
Measurements were performed using a Monolith NT. […] MST-optimized buffer (50 mM Tris·HCl, pH 7.4, 150 mM NaCl, 10 mM MgCl2, 0.1% Tween-20, 0.1% Pluronic-F127, 5% DMSO) was applied. Measurements were carried out using blue LED color with 20% LED power and 40% MST power. The concentration of ShhN-EGFP was adjusted according to the fluorescence. Mean values and standard deviations were calculated from experiments performed at least in triplicate. Nanotemper analysis software V1.5.41 was applied to analyze data.
We used microscale thermophoresis (MST) to quantitatively measure binding constants between the compounds and ShhN (Table S5 and Figure S1). A ShhN-EGFP fusion protein was constructed, expressed, and purified from bacterial cells. In MST binding assays, ShhN-EGFP was kept at a constant concentration according to the fluorescence signal. Different concentrations of the molecules were tested and dissociation constants (Kd) were derived.
On the technique in general: MST reads how a fluorescent partner responds to local heating, with and without ligand.

Assay [2] has as its system Hh signaling pathway (8 × Gli-binding site luciferase reporter, Shh-LIGHT2 cells). The assay can be described thus: Dual-luciferase reporter assay in Shh-LIGHT2 cells. As to conditions: for IC50: Shh Light2, 36 h, ShhN-conditioned medium, 36 h, mean ± SD for three independent experiments; for inhibition at 5 µM: read-out: Inhibition rate for cell assay at 5 μM. In kind it is cell-based. As for the experimental part:
A dual-luciferase reporter assay was performed as previously described (Zhan et al., [2014]; Kong et al., [2015]). Shh-LIGHT2 cells, an Hh activity reporter cell line derived from NIH-3T3 cells by stably expressing 8 × Gli-binding site luciferase reporter (8 × GBS-luciferase) plasmid provided by Sasaki et al. ([1999]) and pRL-Renilla luciferase plasmid, were seeded into 96-well plates. After 24 h, ShhN-conditioned medium (ShhN CM) was added, and cells were exposed to molecules. The luciferase activities of cells were measured 36 h later with a Dual-Luciferase Reporter Assay System (E1960, Promega), according to the manufacturer's instructions, in a luminometer (Molecular Devices, Sunnyvale, CA). The firefly luciferase values were normalized to the Renilla luciferase activities, and IC50 values were fitted with the Hill equation with OriginPro 9.
We further tested the 45 Shh-binding compounds to assess their effects on the Hh signaling pathway. […] Compounds with similar framework were merged, resulting in seven hits.
All 22 derivatives of 7 were tested at 5 μM with the dual-luciferase reporter cell assay (Table S6).
For orientation: In a reporter assay the amount or activity of a reporter protein is the signal.

Assay [3] deals with T2, ShhN (Homo sapiens, UniProt Q15465).
T2 construct: PET-28(a)-human ShhN (Shh 24-197) plasmid; His (N); made in house; host or cells: Escherichia coli Rosetta (DE3)
The assay can be described thus: NanoDSF thermal stability. The assay is classed as binding. As to conditions: ShhN 0.2 mg/mL. As for the experimental part: Measurements were performed using a Prometheus NT.48 instrument (NanoTemper Inc., Germany). ShhN was diluted to 0.2 mg/mL in buffer contained 10 mM HEPES, pH 7.4, 150 mM NaCl, and 5% DMSO. Measurements were carried out using 70% power with standard Prometheus NT.48 capillaries. The heating was 1.0°C/min from 20 to 95°C.
To gain further insight into the effects of inhibitors against ShhN, a NanoDSF experiment was conducted.
For orientation: DSF heats the sample and reads unfolding from a dye or from intrinsic fluorescence.

Assay [4] concerns Gli1 mRNA expression in Ptch+/−p53−/− medulloblastoma cells. The experiment in a line: Real-time PCR of Gli1 mRNA in Ptch+/-p53-/- medulloblastoma cells. In kind it is cell-based, mice. As to conditions: RT-qPCR, 36 h exposure, normalized to GUSB. As for the experimental part: Ptch^+/−p53^−/− medulloblastoma cells were cultivated from spontaneous medulloblastoma developed by ptch^+/−; p53^−/− mice. All procedures were preapproved by the Animal Care and Use Committee of Fudan University and performed according to institutional policies. Briefly, medulloblastoma tissues were mechanically minced and digested by collagenase. The cells were routinely cultured using Neurobasal A medium (Invitrogen) plus B-27 supplement (Invitrogen), EGF 20 ng/mL (Invitrogen), bFGF 20 ng/mL (Invitrogen), non-essential amino acids, N-acetylcysteine 60 μg/mL. GDC-0449 was purchased from Biovision (Milpitas, CA). […]
Total RNA was extracted from cells using an RNAiso Plus Kit (TaKaRa, Dalian, China) according to the manufacturer's instructions and processed directly to cDNA by reverse transcription with a SuperScript III Kit (TaKaRa, Dalian, China). Semi-quantitative PCR amplification was conducted using Stratagene mx3005p (Agilent). All quantitative PCR amplifications were performed in triplicate with a SYBR Green Kit (TaKaRa, Dalian, China) in an iCycleriQ system (Bio-Rad, Hercules, CA). […]
Levels of the Shh-induced transcription factor Gli1 are higher in Ptch^+/−p53^−/− medulloblastoma from mice than in control tissues as a result of increased Hh signaling activity (Wetmore et al., [2001]). […] We measured the expression of Gli1 mRNA using RT-qPCR (Figure 2). […]

In assay [5] the test system is Shh. As to conditions: Shh inhibitory activity in cellular assays, ref Stanton et al., 2009 (Table 1 prints ref. 14), cited from earlier work.
The mark [6] stands for this setting: MST, ShhN-EGFP, mean±SD for three independent experiments, read-out: Kd.

Read-outs that look alike come from different tables or passages of the source.

T1 sequence (Q15465 24-197): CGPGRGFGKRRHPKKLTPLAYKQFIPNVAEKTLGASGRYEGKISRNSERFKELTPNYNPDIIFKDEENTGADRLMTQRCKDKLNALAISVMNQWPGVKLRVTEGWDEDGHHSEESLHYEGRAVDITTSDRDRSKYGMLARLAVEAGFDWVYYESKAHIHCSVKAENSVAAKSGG
T2 sequence (Q15465 24-197): as above

Regarding `Cc1cc(C)c(CSC2=NCCN2)c(C)c1CSC1=NCCN1` [Compound 1], in assay [1] (setting [6]), the Kd came to 7 ± 0.8 µM. Moreover, the IC50 in assay [2] was 2.3 ± 0.2 µM.

`OC(CNCc1ccc2c(c1)OCO2)COc1ccc(-c2csnn2)cc1` (stereo not drawn) [Compound 2]: the Kd in assay [1] was determined as 8.4 ± 0.9 µM. Also, the 50% inhibitory concentration (IC50) in assay [2] worked out at 1.7 ± 0.1 µM.

`c1ccc(COC(CNC2CCCCC2)CNC2CCCCC2)cc1` [Compound 3]: the Kd in assay [1] (setting [6]) stood at 3.1 ± 0.3 µM. This compound also yielded a half-maximal inhibitory concentration (IC50) in assay [2] of 2.2 ± 0.2 µM.

On to `CCN(CC)S(=O)(=O)c1ccc(C(=O)Nc2sc3c(c2C(N)=O)CCN(C)C3)cc1` [Compound 4], for which, in assay [1] (ShhN-EGFP), the “MST binding signal / dose-response (in words)” value is “did not reach saturation”. In assay [2], this compound returned a concentration for half-maximal inhibition (IC50) of 2.7 ± 0.2 µM.

For the compound `OCCCNCC(O)Cn1c2ccc(Br)cc2c2cc(Br)ccc21` (stereo not drawn) [Compound 5], the Kd in assay [1] stood at 4.5 ± 0.6 µM. Also, the IC50 in assay [2] is 2 ± 0.3 µM.

As to `CCOC(=O)c1c(C)n(-c2ccc(C)cc2)c2ccc(OCC(O)CNCCCO)cc12` (stereo not drawn) [Compound 6], the Kd in assay [1] (setting [6]) was 5.8 ± 0.5 µM. Further, the IC50 in assay [2] was determined as 1.4 ± 0.4 µM.

`Nc1nc(NCCCN2CCOCC2)nc(NCc2ccco2)c1[N+](=O)[O-]` [Compound 7]: the Kd in assay [1] (setting [6]) was found to be 6.2 ± 0.6 µM. For the same compound, in assay [2], the IC50 was found to be 2.2 ± 0.3 µM.

For the compound `Nc1nc(NCC2CCCO2)nc(NCc2ccco2)c1[N+](=O)[O-]` (stereo not drawn) [Compound 7_2d2], in assay [2], the inhibition at 5 µM came out at 94 ± 4% and the 50% inhibitory concentration (IC50) stood at 3.2 ± 0.7 µM.

Turning to `Nc1nc(NCCN2CCOCC2)nc(NCc2ccco2)c1[N+](=O)[O-]` [Compound 7_2d3], in assay [2], the inhibition at 5 µM worked out at 68 ± 12% and the IC50 turned out to be 2.6 ± 0.3 µM.

With `CCOc1ccc(Nc2nc(N)c([N+](=O)[O-])c(NCc3ccco3)n2)cc1` [Compound 7_2d6], in assay [2], the inhibition at 5 µM stood at 97 ± 7% and the IC50 was 2 ± 0.8 µM.

As to `Nc1nc(Nc2ccc(Cl)cc2)nc(NCc2ccco2)c1[N+](=O)[O-]` [Compound 7_2d7], in assay [2], the inhibition at 5 µM is 102 ± 3% and the IC50 came to 2.1 ± 0.2 µM.

For `Nc1nc(Nc2cccc(F)c2)nc(NCc2ccco2)c1[N+](=O)[O-]` [Compound 7_2d8], in assay [2], the inhibition at 5 µM was 101 ± 8% and the IC50 is 2.4 ± 0.4 µM.

Regarding `Nc1nc(Nc2ccccc2F)nc(NCc2ccco2)c1[N+](=O)[O-]` [Compound 7_2d9], in assay [2], the inhibition at 5 µM worked out at 94 ± 3% and the IC50 is 5.9 ± 1.7 µM.

Turning to `c1ccc(Nc2nc(NC3CCCCCC3)nc3c2cnn3-c2ccccc2)cc1` [Compound 7_3d2], in assay [2], the inhibition at 5 µM came out at 93 ± 1% and the IC50 was 1.6 ± 0.6 µM.

As for `CCN(CC)CCNc1nc(Nc2cccc(Cl)c2)c2cnn(-c3ccccc3)c2n1` [Compound 7_3d3], in assay [2], the inhibition at 5 µM is 107 ± 1% and the IC50 is about 0.4 µM. In assay [3], the “Thermal stability of ShhN (in words)” value is reported as “improved the thermal stability of ShhN better than 7”.

For `CCN1CCN(c2nc(Nc3cccc(Cl)c3)c3cnn(-c4ccccc4)c3n2)CC1` [Compound 7_3d4], in assay [2], the inhibition at 5 µM is 105 ± 5% and the IC50 was found to be 0.6 ± 0.1 µM.

`N#Cc1c(N)nc(NCCCN2CCOCC2)nc1-c1ccc(Cl)cc1` [Compound 7_3d11]: the IC50 in assay [2] came to 1.2 ± 0.2 µM.

As for `CS(=O)(=O)c1ccc(C(=O)Nc2ccc(Cl)c(-c3ccccn3)c2)c(Cl)c1` [GDC-0449], the “Relative mRNA expression of Gli1 (effect in words)” value in assay [4] is on record as “positive control for inhibition of the expression of Gli1 mRNA”.

In the case of `O=C(C[C@@H]1C/C=C/CCC(=O)O[C@H](c2ccccc2)CNC1=O)NCc1ccc(Cl)cc1` [Robotnikinin], the IC50 is 15 µM in assay [5], about 15 µM in assay [5] (listed as robotnikinin) and 4.4 ± 0.9 µM in assay [2]. Besides, the “Relative mRNA expression of Gli1 (effect in words)” value in assay [4] is given as “did not inhibit Gli1 mRNA expression”.
